# Results published in patent US6737383B1, “Herbicidal oxadiazolidines” (priority 1999, dated 2004).
# Legend:
# soybean = assay: Test B pre/postemergence soybean; assay type: in vivo, Glycine max
# In short: (§1)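 Response is a visual 0-to-10 score relative to untreated plants, where 0 means no effect and 10 means complete control, taken twelve to sixteen days after application. Treatments went onto soil at planting and onto foliage of 1- to 4-leaf plants, using a surfactant-containing non-phytotoxic solvent.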
# morningglory = assay: Test B pre/postemergence morningglory; assay type: in vivo, Ipomoea hederacea
# In short: as §1
# sugar beet = assay: Test B pre/postemergence sugar beet; assay type: in vivo, Beta vulgaris
# In short: as §1
# wheat = assay: Test B pre/postemergence wheat; assay type: in vivo, Triticum aestivum
# In short: as §1
# crabgrass = assay: Test B pre/postemergence crabgrass; assay type: in vivo, Digitaria sanguinalis
# In short: as §1
# pigweed = assay: Test B pre/postemergence pigweed; assay type: in vivo, Amaranthus retroflexus
# In short: as §1
# corn = assay: Test B pre/postemergence corn; assay type: in vivo, Zea mays
# In short: as §1
# blackgrass = assay: Test B pre/postemergence blackgrass; assay type: in vivo, Alopecurus myosuroides
# In short: as §1
# bedstraw = assay: Test B pre/postemergence bedstraw; assay type: in vivo, Galium aparine
# In short: as §1
# rape = assay: Test B pre/postemergence rape; assay type: in vivo, Brassica napus
# In short: as §1
# surinam grass = assay: Test B pre/postemergence surinam grass; assay type: in vivo, Brachiaria decumbens
# In short: as §1
# giant foxtail = assay: Test B pre/postemergence giant foxtail; assay type: in vivo, Setaria faberii
# In short: as §1
# cocklebur = assay: Test B pre/postemergence cocklebur; assay type: in vivo, Xanthium strumarium
# In short: as §1
# velvetleaf = assay: Test B pre/postemergence velvetleaf; assay type: in vivo, Abutilon theophrasti
# In short: as §1
# purple nutsedge = assay: Test B pre/postemergence purple nutsedge; assay type: in vivo, Cyperus rotundus
# In short: as §1
# wild oat = assay: Test B pre/postemergence wild oat; assay type: in vivo, Avena fatua
# In short: as §1
# [1] = Postemergence, Rate 62 g/ha, scale 0 to 10, 0 is no effect, 10 is complete control
# [2] = Postemergence, Rate 500 g/ha, scale 0 (no effect) to 10 (complete control)
# [3] = Rate 62 g/ha, Preemergence, scale 0 to 10
# [4] = Rate 125 g/ha, Preemergence, scale 0 to 10 (0 no effect, 10 complete control)
# [5] = Rate 250 g/ha, Postemergence, scale 0 to 10, 0 is no effect, 10 is complete control
# [6] = Rate 500 g/ha, Preemergence, scale 0 to 10 (0 no effect, 10 complete control)
# [7] = Postemergence, Rate 125 g/ha, scale of 0 to 10 where 0 is no effect and 10 is complete control
# [8] = Preemergence, Rate 250 g/ha, scale 0 (no effect) to 10 (complete control)
# [9] = Preemergence, Rate 62 g/ha, scale of 0 to 10 where 0 is no effect and 10 is complete control
# [10] = Preemergence, Rate 125 g/ha, scale 0 to 10, 0 is no effect, 10 is complete control
# [11] = Preemergence, Rate 500 g/ha, scale of 0 to 10 where 0 is no effect and 10 is complete control
# [12] = Preemergence, Rate 250 g/ha, scale 0 to 10, 0 is no effect, 10 is complete control
# [13] = Preemergence, Rate 500 g/ha, scale 0 to 10, 0 is no effect, 10 is complete control
smiles,measurement,setting,value
COc1ccc(N(C(=O)n2oc(=O)n(C(C)C)c2=O)C(C)C)cc1 [Compound 780],"Plant response rating, Soybean",soybean; [1],3
same,Soybean plant response rating,soybean; [2],4
same,Soybean plant response rating,soybean; [3],0
same,Soybean plant response rating,soybean; [4],0
same,Soybean plant response rating,soybean; [5],0
same,Soybean plant response rating,soybean; [6],3
same,"Plant response rating, Morningglory",morningglory; [1],4
same,Morningglory plant response rating,morningglory; [7],4
same,Morningglory plant response rating,morningglory; [2],8
same,Morningglory plant response rating,morningglory; [3],0
same,Morningglory plant response rating,morningglory; [4],0
same,Morningglory plant response rating,morningglory; [5],7
same,Morningglory plant response rating,morningglory; [6],2
same,"Plant response rating, Sugarbeets",sugar beet; [1],0
same,Sugarbeets plant response rating,sugar beet; [2],0
same,Sugarbeets plant response rating,sugar beet; [3],2
same,Sugarbeets plant response rating,sugar beet; [4],2
same,Sugarbeets plant response rating,sugar beet; [5],0
same,Sugarbeets plant response rating,sugar beet; [6],6
same,"Plant response rating, Wheat",wheat; [1],0
same,Wheat plant response rating,wheat; [2],2
same,Wheat plant response rating,wheat; [3],0
same,Wheat plant response rating,wheat; [4],6
same,Wheat plant response rating,wheat; [5],0
same,Wheat plant response rating,wheat; [6],9
same,"Plant response rating, Crabgrass",crabgrass; [1],3
same,Crabgrass plant response rating,crabgrass; [7],4
same,Crabgrass plant response rating,crabgrass; [2],7
same,Crabgrass plant response rating,crabgrass; [8],10
same,Crabgrass plant response rating,crabgrass; [3],10
same,Crabgrass plant response rating,crabgrass; [4],10
same,Crabgrass plant response rating,crabgrass; [5],7
same,Crabgrass plant response rating,crabgrass; [6],10
same,"Plant response rating, Redroot pigweed",pigweed; [1],0
same,Redroot pigweed plant response rating,pigweed; [7],0
same,Redroot pigweed plant response rating,pigweed; [2],0
same,Redroot pigweed plant response rating,pigweed; [3],0
same,Redroot pigweed plant response rating,pigweed; [4],3
same,Redroot pigweed plant response rating,pigweed; [5],0
same,Redroot pigweed plant response rating,pigweed; [6],6
same,"Plant response rating, Corn",corn; [1],0
same,Corn plant response rating,corn; [7],0
same,Corn plant response rating,corn; [2],6
same,Corn plant response rating,corn; [8],6
same,Corn plant response rating,corn; [3],2
same,Corn plant response rating,corn; [4],2
same,Corn plant response rating,corn; [5],3
same,Corn plant response rating,corn; [6],9
same,"Plant response rating, Blackgrass",blackgrass; [1],0
same,Blackgrass plant response rating,blackgrass; [7],2
same,Blackgrass plant response rating,blackgrass; [2],4
same,Blackgrass plant response rating,blackgrass; [8],9
same,Blackgrass plant response rating,blackgrass; [3],2
same,Blackgrass plant response rating,blackgrass; [4],6
same,Blackgrass plant response rating,blackgrass; [5],4
same,Blackgrass plant response rating,blackgrass; [6],9
same,"Plant response rating, Bedstraw",bedstraw; [1],0
same,Bedstraw plant response rating,bedstraw; [7],0
same,Bedstraw plant response rating,bedstraw; [8],0
same,Bedstraw plant response rating,bedstraw; [3],0
same,Bedstraw plant response rating,bedstraw; [4],0
same,Bedstraw plant response rating,bedstraw; [6],2
same,"Plant response rating, Rape",rape; [1],0
same,Rape plant response rating,rape; [7],0
same,Rape plant response rating,rape; [2],0
same,Rape plant response rating,rape; [3],0
same,Rape plant response rating,rape; [4],0
same,Rape plant response rating,rape; [5],0
same,Rape plant response rating,rape; [6],6
same,"Plant response rating, B. signalgrass",surinam grass; [1],0
same,B. signalgrass plant response rating,surinam grass; [7],5
same,B. signalgrass plant response rating,surinam grass; [8],8
same,B. signalgrass plant response rating,"surinam grass; Rate 62 g/ha, Preemergence, scale 0 (no effect) to 10 (complete control)",6
same,B. signalgrass plant response rating,surinam grass; [4],6
same,B. signalgrass plant response rating,surinam grass; [5],5
same,B. signalgrass plant response rating,"surinam grass; Rate 500 g/ha, Postemergence, scale 0 to 10, 0 is no effect, 10 is complete control",5
same,B. signalgrass plant response rating,surinam grass; [6],4
same,"Plant response rating, Giant foxtail",giant foxtail; [1],7
same,Giant foxtail plant response rating,giant foxtail; [7],8
same,Giant foxtail plant response rating,giant foxtail; [2],9
same,Giant foxtail plant response rating,giant foxtail; [8],10
same,Giant foxtail plant response rating,giant foxtail; [3],10
same,Giant foxtail plant response rating,giant foxtail; [4],10
same,Giant foxtail plant response rating,giant foxtail; [5],9
same,Giant foxtail plant response rating,giant foxtail; [6],10
same,"Plant response rating, Cocklebur",cocklebur; [1],0
same,Cocklebur plant response rating,cocklebur; [7],0
same,Cocklebur plant response rating,cocklebur; [2],0
same,Cocklebur plant response rating,cocklebur; [8],2
same,Cocklebur plant response rating,cocklebur; [3],0
same,Cocklebur plant response rating,cocklebur; [4],0
same,Cocklebur plant response rating,cocklebur; [5],0
same,Cocklebur plant response rating,cocklebur; [6],2
same,"Plant response rating, Velvetleaf",velvetleaf; [1],0
same,Velvetleaf plant response rating,velvetleaf; [2],4
same,Velvetleaf plant response rating,velvetleaf; [3],0
same,Velvetleaf plant response rating,velvetleaf; [4],3
same,Velvetleaf plant response rating,velvetleaf; [5],4
same,Velvetleaf plant response rating,velvetleaf; [6],5
same,"Plant response rating, Nutsedge",purple nutsedge; [1],0
same,Nutsedge plant response rating,purple nutsedge; [7],0
same,Nutsedge plant response rating,purple nutsedge; [2],4
same,Nutsedge plant response rating,purple nutsedge; [3],0
same,Nutsedge plant response rating,purple nutsedge; [4],0
same,Nutsedge plant response rating,purple nutsedge; [5],4
same,"Plant response rating, Wild oats",wild oat; [1],0
same,Wild oats plant response rating,wild oat; [2],2
same,Wild oats plant response rating,wild oat; [3],0
same,Wild oats plant response rating,wild oat; [4],0
same,Wild oats plant response rating,wild oat; [5],2
same,Wild oats plant response rating,wild oat; [6],9
CC(C)N(C(=O)n1oc(=O)n(CCC2OCCCO2)c1=O)c1ccc(F)cc1F [Compound 502],"Plant response rating, Soybean",soybean; [9],0
same,Soybean plant response rating,soybean; [10],4
same,Soybean plant response rating,soybean; [11],5
same,"Plant response rating, Morningglory",morningglory; [9],0
same,Morningglory plant response rating,morningglory; [10],2
same,Morningglory plant response rating,morningglory; [11],4
same,"Plant response rating, Sugarbeets",sugar beet; [9],0
same,Sugarbeets plant response rating,sugar beet; [10],2
same,Sugarbeets plant response rating,sugar beet; [11],7
same,"Plant response rating, Wheat",wheat; [9],0
same,Wheat plant response rating,wheat; [10],3
same,Wheat plant response rating,wheat; [11],7
same,"Plant response rating, Crabgrass",crabgrass; [9],10
same,Crabgrass plant response rating,crabgrass; [10],10
same,Crabgrass plant response rating,crabgrass; [11],10
same,"Plant response rating, Redroot pigweed",pigweed; [9],9
same,Redroot pigweed plant response rating,pigweed; [10],9
same,Redroot pigweed plant response rating,pigweed; [11],10
same,"Plant response rating, Corn",corn; [9],0
same,Corn plant response rating,corn; [10],8
same,Corn plant response rating,corn; [11],9
same,"Plant response rating, Blackgrass",blackgrass; [9],10
same,Blackgrass plant response rating,blackgrass; [10],10
same,Blackgrass plant response rating,blackgrass; [12],10
same,Blackgrass plant response rating,blackgrass; [11],10
same,"Plant response rating, Bedstraw",bedstraw; [9],10
same,Bedstraw plant response rating,bedstraw; [12],10
same,Bedstraw plant response rating,bedstraw; [13],10
same,"Plant response rating, Rape",rape; [9],2
same,Rape plant response rating,rape; [10],3
same,Rape plant response rating,rape; [11],9
same,"Plant response rating, B. signalgrass",surinam grass; [9],6
same,B. signalgrass plant response rating,surinam grass; [10],9
same,B. signalgrass plant response rating,surinam grass; [12],10
same,B. signalgrass plant response rating,surinam grass; [13],10
same,"Plant response rating, Giant foxtail",giant foxtail; [9],10
same,Giant foxtail plant response rating,giant foxtail; [10],10
same,Giant foxtail plant response rating,giant foxtail; [11],10
same,"Plant response rating, Cocklebur",cocklebur; [9],0
same,Cocklebur plant response rating,cocklebur; [10],0
same,Cocklebur plant response rating,cocklebur; [12],0
same,Cocklebur plant response rating,cocklebur; [11],9
same,"Plant response rating, Velvetleaf",velvetleaf; [9],0
same,Velvetleaf plant response rating,velvetleaf; [10],5
same,Velvetleaf plant response rating,velvetleaf; [11],8
same,"Plant response rating, Nutsedge",purple nutsedge; [9],0
same,"Plant response rating, Wild oats",wild oat; [9],9
same,Wild oats plant response rating,wild oat; [10],9
same,Wild oats plant response rating,wild oat; [11],10
